Patent publication US9067974B2, “Polymyxin derivatives and uses thereof” (priority 2006, dated 2015)

How the values were obtained:
[1] = test system: E. coli IH3080 (K1:O18); experiment: Well diffusion growth inhibition on LB agar plates (direct antibacterial activity); type: cell-based, Escherichia coli
Procedure: Peptides synthesized in Example 1, all carrying at least two (2) but not more than three (3) positive charges, were studied for their ability to inhibit the growth of E. coli. This was tested employing LB agar (LB Agar Lennox, Difco, BD, Sparks, Md., U.S.A) plates. The indicator organism E. coli IH3080 (K1:O18) was an encapsulated strain originally isolated from a neonate suffering from meningitis (Vaara et al. 1984) and obtained from National Public Health Institute, Helsinki, Finland.
(§1) From an overnight-grown culture of IH3080 on LB agar, a suspension of approx. 10^8 cells/ml was prepared in 0.9% NaCl. Aliquots of this suspension were then pipetted on the agar plates and the plates were gently shaken to spread the suspension evenly on the entire surface of the plate. Thereafter, the unabsorbed part of the suspension was removed by using a Pasteur pipette. After the surface had dried, small wells (diameter, 2 mm) were drilled on the plates (five wells per plate) by using a sterile sharp-edged narrow metal tube, single-use pipette tip, and vacuum suction. […] Controls included 0.9% NaCl solution without the compound to be tested. The plates were then incubated for 18 h at 37° C. whereafter the diameters of growth inhibition zones around each well were measured; the diameter of the well itself was not reduced. Finally, the diameters were converted to surface areas of growth inhibition (in square mm).

[2] = test system: Acinetobacter baumannii ATCC 19606; experiment: as above; type: cell-based; settings: A. baumannii ATCC 19606
Procedure: (§2) From an overnight-grown culture of IH3080 on LB agar, a suspension of approx. 10^8 cells/ml was prepared in 0.9% NaCl. Aliquots of this suspension were then pipetted on the agar plates and the plates were gently shaken to spread the suspension evenly on the entire surface of the plate. Thereafter, the unabsorbed part of the suspension was removed by using a Pasteur pipette. After the surface had dried, small wells (diameter, 2 mm) were drilled on the plates (five wells per plate) by using a sterile sharp-edged narrow metal tube, single-use pipette tip, and vacuum suction. Samples (4 μl and 10 μl) of the peptide solution in 0.9% NaCl (at concentrations of 1 μg/ml and 0.1 μg/ml) were then pipetted to the wells and the sample fluids were allowed to absorb. Controls included 0.9% NaCl solution without the compound to be tested. The plates were then incubated for 18 h at 37° C. whereafter the diameters of growth inhibition zones around each well were measured; the diameter of the well itself was not reduced. Finally, the diameters were converted to surface areas of growth inhibition (in square mm).
(§3) Direct antibacterial activity of twelve NAB compounds against Acinetobacter baumannii ATCC 19606 and Pseudomonas aeruginosa ATCC 27853 was tested by using the susceptibility determination method described in Example 2. Five compounds (NAB7062, NAB734, NAB737, NAB739, and NAB740) had notable activity against A. baumannii. […] The antibacterial activity of NAB739 and NAB740 were as strong as or even stronger than that of polymyxin B.

[3] = test system: Pseudomonas aeruginosa ATCC 27853; experiment: as above; type: cell-based; settings: Ps. aeruginosa ATCC 27853
Procedure: as §2, §3

[4] = test system: E. coli IH3080; experiment: Sensitization to rifampin: well diffusion growth inhibition on LB plates containing rifampin; type: cell-based, Escherichia coli; settings: 4 μg of compound
Procedure: as §1

[5] = test system: A. baumannii ATCC 19606; experiment: as above; type: cell-based, Acinetobacter baumannii; settings: 4 μg of compound
[6] = test system: Ps. aeruginosa ATCC 27853; experiment: as above; type: cell-based, Pseudomonas aeruginosa; settings: 4 μg of compound

Substance	Antibacterial activity (growth inhibition area around a well) ([1]; 4 μg of compound per well)	Antibacterial activity (growth inhibition area around a well) ([1]; 10 μg of compound per well)	Antibacterial activity (growth inhibition area around a well) ([2]; 4 μg per well)	Antibacterial activity (growth inhibition area around a well) ([2]; 10 μg per well)	Antibacterial activity (growth inhibition area around a well) ([3]; 4 μg per well)	Antibacterial activity (growth inhibition area around a well) ([3]; 10 μg per well)	Antibacterial activity in the presence of rifampin (growth inhibition area around a well) ([4]; rifampin 0 μg/ml)	Antibacterial activity in the presence of rifampin (growth inhibition area around a well) ([4]; rifampin 0.1 μg/ml)	Antibacterial activity in the presence of rifampin (growth inhibition area around a well) ([4]; rifampin 1.0 μg/ml)	Antibacterial activity in the presence of rifampin (growth inhibition area around a well) ([5]; rifampin 0 μg/ml)	Antibacterial activity in the presence of rifampin (growth inhibition area around a well) ([5]; rifampin 0.1 μg/ml)	Antibacterial activity in the presence of rifampin (growth inhibition area around a well) ([5]; rifampin 0.3 μg/ml)	Antibacterial activity in the presence of rifampin (growth inhibition area around a well) ([6]; rifampin 0 μg/ml)	Antibacterial activity in the presence of rifampin (growth inhibition area around a well) ([6]; rifampin 0.1 μg/ml)	Antibacterial activity in the presence of rifampin (growth inhibition area around a well) ([6]; rifampin 0.3 μg/ml)
OA-Thr-DSer-cy[Dab-Dab-DPhe-Leu-Dab-Dab-Thr-] [NAB 739]	133 square millimeters	177 square millimeters	113 square millimeters	177 square millimeters	38 square millimeters	79 square millimeters	133 square millimeters	177 square millimeters	201 square millimeters	113 square millimeters	177 square millimeters	314 square millimeters	38 square millimeters	64 square millimeters	64 square millimeters
OA-Thr-Dab-cy[Dab-Dab-DPhe-Leu-Abu-Dab-Thr-] [NAB 716]	13 square millimeters	64 square millimeters	0 square millimeters	0 square millimeters	0 square millimeters	0 square millimeters	13 square millimeters	133 square millimeters	165 square millimeters	0 square millimeters	0 square millimeters	64 square millimeters	0 square millimeters	0 square millimeters	0 square millimeters
DA-Thr-Abu-cy[Dab-Dab-DPhe-Leu-Dab-Dab-Thr-] [NAB 7062]	50 square millimeters	99 square millimeters	13 square millimeters	38 square millimeters	0 square millimeters	0 square millimeters	50 square millimeters	104 square millimeters	104 square millimeters	13 square millimeters	50 square millimeters	95 square millimeters	0 square millimeters	0 square millimeters	7 square millimeters
OA-Thr-Abu-cy[Dab-Dab-DPhe-Leu-Dab-Dab-Leu-] [NAB 719]	7 square millimeters	50 square millimeters	0 square millimeters	0 square millimeters	0 square millimeters	0 square millimeters	7 square millimeters	79 square millimeters	95 square millimeters	0 square millimeters	154 square millimeters	133 square millimeters	0 square millimeters	0 square millimeters	7 square millimeters
OA-Thr-DAla-cy[Dab-Dab-DPhe-Thr-Dab-Dab-Thr-] [NAB 738]	0 square millimeters	64 square millimeters	0 square millimeters	0 square millimeters	0 square millimeters	0 square millimeters	0 square millimeters	133 square millimeters	177 square millimeters	0 square millimeters	95 square millimeters	154 square millimeters	0 square millimeters	13 square millimeters	13 square millimeters
OA-Thr-Abu-cy[Dab-Dab-DLeu-Leu-Dab-Dab-Thr-] [NAB 718]	0 square millimeters	0 square millimeters	0 square millimeters	0 square millimeters	0 square millimeters	0 square millimeters	0 square millimeters	13 square millimeters	133 square millimeters	0 square millimeters	0 square millimeters	38 square millimeters	0 square millimeters	0 square millimeters	0 square millimeters
